Reference: patent US8129396B2, “2-[1H-benzimidazol-2(3H)-ylidene]-2-(pyrimidin-2-yl)acetamides and 2-[benzothiazol-2(3H)-ylidene]-2-(pyrimidin-2-yl)acetamides as kinase inhibitors” (Telik, Inc., priority 2008, dated 2012)
Like-named read-outs stand apart in the source and are kept apart here.

What was measured:
[1] = target: T1, Aurora A kinase (Homo sapiens, UniProt O14965); assay: Aurora A kinase assay (IMAP fluorescence polarization); assay type: biochemical; details: 10 μM ATP; rounded to 1 significant figure; read-out: Aur-A IC50
T1 construct: purchased Upstate Biotech
T1 sequence (O14965 1-403): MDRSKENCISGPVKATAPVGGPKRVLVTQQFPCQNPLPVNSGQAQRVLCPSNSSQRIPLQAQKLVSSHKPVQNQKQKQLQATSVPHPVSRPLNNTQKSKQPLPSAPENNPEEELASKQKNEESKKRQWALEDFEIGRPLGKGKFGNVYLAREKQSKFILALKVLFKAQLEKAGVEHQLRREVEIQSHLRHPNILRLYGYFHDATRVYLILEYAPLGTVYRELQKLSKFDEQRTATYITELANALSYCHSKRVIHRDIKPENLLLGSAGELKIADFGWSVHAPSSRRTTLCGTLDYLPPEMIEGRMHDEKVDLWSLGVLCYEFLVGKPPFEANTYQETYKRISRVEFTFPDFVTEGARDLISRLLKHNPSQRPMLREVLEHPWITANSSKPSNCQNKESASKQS
Method in brief: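 Compounds (eight 3-fold dilutions, 2.5% DMSO final) were preincubated 5 min at room temperature with Aurora A kinase in buffer with 1 mM DTT. Reaction with 100 nM fluorescein-PKAtide and 10 μM ATP ran 45 min at room temperature, then was stopped with IMAP binding reagent; fluorescence polarization was read after 30 min.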

[2] = target: T2, Aurora B kinase (Homo sapiens, UniProt Q96GD4); assay: Aurora B kinase assay (IMAP fluorescence polarization); assay type: biochemical; details: 10 μM ATP; rounded to 1 significant figure; read-out: Aur-B IC50
T2 construct: purchased BPS Bioscience
Method in brief: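 Reaction started with 100 nM fluorescein-labelled PKAtide and 10 μM ATP, run 45 min at room temperature, then stopped with IMAP binding reagent (1:400). After 30 min shaking at room temperature, fluorescence polarization read; run in duplicate with solvent control.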

[3] = target: T3, VEGFR2 kinase (Homo sapiens, UniProt P35968); assay: VEGFR2 kinase assay; assay type: biochemical; details: 6 μM ATP, 1 mM MnCl2; rounded to 1 significant figure
T3 construct: purchased Cell Signaling Technology
Method in brief: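 VEGFR2 phosphorylates CSKtide with 6 μM ATP and 1 mM MnCl2 for 1 hr, otherwise following the Aurora A kinase protocol. Detection by IMAP fluorescence polarization, binding reagent diluted 1:1200 in 1:1 binding buffer A/B. Run in duplicate with solvent control.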

[4] = system: p-H3 in HCT116 cells; assay: Histone phosphorylation (p-H3) assay; assay type: cell-based; details: Homo sapiens, read-out: p-H3 IC50
Method in brief: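 HCT116 cells (2.5×10^4/well, attached overnight) treated 4 h with 8-point 3-fold compound dilutions at 0.5% DMSO. Lysates dot-blotted onto nitrocellulose and probed for p-H3 with β-actin on the same membrane, fluorescent secondary antibodies, Odyssey scan; duplicate wells.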

[5] = system: HCT116 (human colon carcinoma) cells; assay: HCT116 cytotoxicity assay (CellTiter-Glo); assay type: cell-based; details: HCT-116, 72 h, read-out: HCT116 IC50
[6] = system: HL60 (human promyelocytic leukemia) cells; assay: HL60 cytotoxicity assay (CellTiter-Glo); assay type: cell-based; details: HL-60, 72 h, read-out: HL60 IC50
Source text: The cell lines HL60 (human promyelocytic leukemia) and HCT116 (human colon carcinoma) were obtained from the American Type Culture Collection, Manassas, Va., U.S.A., and HUVEC-2 (human umbilical vein endothelial cells) from BD Biosciences, Bedford, Mass., U.S.A. Aurora A kinase was obtained from Upstate Biotech, Billerica, Mass., U.S.A.; Aurora B kinase from BPS Bioscience, San Diego, Calif., U.S.A.; and VEGFR2 kinase from Cell Signaling Technology, Danvers, Mass., U.S.A. The IMAP FP Screening Express kit was obtained from Molecular Devices, Sunnyvale, Calif., U.S.A.; the CellTiter-Glo assay kit from Promega Corporation, Madison, Wis., U.S.A.; and the Cellular DNA Cytometric Analysis Reagent Kit and BrdU labeling and detection kit from Roche Diagnostics Corporation, Indianapolis, Ind., U.S.A. All products were used in accordance with manufacturer's directions. Kinase inhibition assays and the histone phosphorylation (p-H3) assay were conducted in duplicate, and the cytotoxicity and HUVEC proliferation assays were conducted in triplicate, in each case with solvent control.
Log-phase cells were trypsinized, collected by centrifugation, and resuspended in a small volume of fresh medium, and the density of viable cells was determined following Trypan Blue staining. Cells were diluted in fresh media (1×10^4 cells/mL for HL60 and 4×10^4 cells/mL for HCT116 cells), the test compounds (concentrations between 0.1 μM and 200 μM, dissolved in DMSO, 50 μL) added immediately after dilution to achieve a final DMSO concentration of 0.5%, then the suspensions added at 150 μL/well to 96-well plates, and incubated overnight to allow attachment in the case of adherent cells. The cells were cultured for three days (about three doubling times). The cells were then collected by centrifugation, and 100 μL of the culture supernatant was replaced by the CellTiter-Glo reagent. After incubation for 15 minutes at room temperature, the plate was read with a luminometer.

[7] = system: HUVEC-2 (human umbilical vein endothelial cells); assay: HUVEC VEGF-dependent proliferation assay (BrdU); assay type: cell-based; details: read-out: HUVEC IC50
Method in brief: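 HUVEC-2 cells on gelatin got serially diluted compound (0.5% DMSO final), and VEGF (25 ng/mL) was added 2 hr later. BrdU (10 μM) went in after one day, with labelling for another day. VEGF-dependent proliferation was read by BrdU detection, in triplicate.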

[8] = HCT-116, HCT116 cells, 4 hr incubation
[9] = cytotoxicity, three days culture
[10] = VEGF (25 ng/mL)-dependent proliferation

T3 sequence (P35968 20-1356): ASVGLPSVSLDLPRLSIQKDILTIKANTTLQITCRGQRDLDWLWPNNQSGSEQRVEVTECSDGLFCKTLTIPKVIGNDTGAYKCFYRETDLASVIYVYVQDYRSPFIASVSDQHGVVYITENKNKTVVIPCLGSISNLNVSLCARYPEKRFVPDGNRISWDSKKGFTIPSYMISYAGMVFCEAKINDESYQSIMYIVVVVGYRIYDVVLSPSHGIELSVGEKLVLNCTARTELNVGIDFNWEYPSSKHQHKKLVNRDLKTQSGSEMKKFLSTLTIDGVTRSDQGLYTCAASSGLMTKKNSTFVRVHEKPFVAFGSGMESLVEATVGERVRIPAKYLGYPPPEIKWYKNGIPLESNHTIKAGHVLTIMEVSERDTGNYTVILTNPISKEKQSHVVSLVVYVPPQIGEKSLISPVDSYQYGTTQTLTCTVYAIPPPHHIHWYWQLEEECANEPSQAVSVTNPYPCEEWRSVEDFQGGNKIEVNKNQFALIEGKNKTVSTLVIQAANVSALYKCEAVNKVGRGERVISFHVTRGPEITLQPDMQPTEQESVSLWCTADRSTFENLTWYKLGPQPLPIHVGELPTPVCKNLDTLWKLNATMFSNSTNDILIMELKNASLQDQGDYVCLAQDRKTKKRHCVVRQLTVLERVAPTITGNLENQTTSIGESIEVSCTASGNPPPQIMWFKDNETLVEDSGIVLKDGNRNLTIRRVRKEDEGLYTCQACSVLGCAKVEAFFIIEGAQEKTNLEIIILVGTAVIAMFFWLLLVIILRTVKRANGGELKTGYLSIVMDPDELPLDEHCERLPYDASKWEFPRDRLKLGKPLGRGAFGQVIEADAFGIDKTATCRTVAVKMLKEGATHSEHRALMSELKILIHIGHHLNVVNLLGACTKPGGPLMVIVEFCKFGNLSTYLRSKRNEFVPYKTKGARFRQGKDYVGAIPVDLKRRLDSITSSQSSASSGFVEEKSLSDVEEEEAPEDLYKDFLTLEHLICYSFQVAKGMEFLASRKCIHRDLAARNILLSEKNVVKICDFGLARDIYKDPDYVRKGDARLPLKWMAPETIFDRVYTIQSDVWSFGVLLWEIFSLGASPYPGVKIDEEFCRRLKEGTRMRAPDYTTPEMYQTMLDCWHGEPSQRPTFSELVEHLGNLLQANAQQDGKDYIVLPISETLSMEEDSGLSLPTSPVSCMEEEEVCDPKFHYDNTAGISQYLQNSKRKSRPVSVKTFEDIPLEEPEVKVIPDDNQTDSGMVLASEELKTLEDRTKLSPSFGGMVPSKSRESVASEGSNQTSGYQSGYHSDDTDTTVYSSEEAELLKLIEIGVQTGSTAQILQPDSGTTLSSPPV
T2 sequence (Q96GD4 whole entry): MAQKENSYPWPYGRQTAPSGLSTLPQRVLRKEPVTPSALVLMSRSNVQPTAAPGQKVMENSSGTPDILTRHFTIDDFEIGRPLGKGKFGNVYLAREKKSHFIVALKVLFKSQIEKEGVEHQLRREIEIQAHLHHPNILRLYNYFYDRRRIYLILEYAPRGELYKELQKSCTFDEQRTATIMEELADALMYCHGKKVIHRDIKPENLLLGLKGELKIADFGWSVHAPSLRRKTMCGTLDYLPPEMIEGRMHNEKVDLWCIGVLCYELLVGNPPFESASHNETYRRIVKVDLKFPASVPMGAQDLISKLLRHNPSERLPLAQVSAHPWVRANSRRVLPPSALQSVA

Structure (SMILES) | IC50 [1] [nM] | IC50 [2] [nM] | IC50 [3] [nM] | IC50 [4, 8] [nM] | IC50 [5, 9] [nM] | IC50 [6, 9] [nM] | IC50 [7, 10] [nM] | IC50 ([4]; HCT-116, 4 h) [nM] | IC50 [5] [nM] | IC50 [6] [nM] | IC50 [7] [nM]
CN(C)CC(=O)Nc1ccc2c(c1)N/C(=C(/C(N)=O)c1nccc(C(F)(F)F)n1)N2 [Compound 73A] | 10 | 5 | 6 | 100 | 200 | 200 | 100 | – | – | – | –
NC(=O)/C(=C1\Nc2ccc(C(=O)NCCN3CCC(F)(F)CC3)cc2N1)c1nccc(C(F)(F)F)n1 [Compound 51A] | 7 | 6 | 20 | 300 | 500 | 50 | 30 | – | – | – | –
NC(=O)/C(=C1\Nc2ccc(CC(=O)NCCCN3CCOCC3)cc2S1)c1nccc(C(F)(F)F)n1 [Compound 110A] | 50 | 20 | 20 | – | – | – | – | 200 | 200 | 800 | 80
NC(=O)C(=C1Nc2ccccc2N1)c1nccc(C(F)(F)F)n1 [Compound 1A, 2-[1H-benzimidazol-2(3H)-ylidene]-2-(4-trifluoromethylpyrimidin-2-yl)acetamide] | 10 | 5 | 10 | 200 | 300 | 1000 | 70 | – | – | – | –
NC(=O)/C(=C1\Nc2ccccc2S1)c1nc(-c2cccnc2)cc(C(F)(F)F)n1 [Compound 10A] | 10 | 10 | 40 | 5000 | 1000 | 2000 | – | – | – | – | –
NC(=O)/C(=C1\Nc2ccc(NC(=O)C3CC3)cc2N1)c1nccc(C(F)(F)F)n1 [Compound 33A] | 2 | 10 | 9 | 500 | 300 | 300 | – | – | – | – | –
NC(=O)/C(=C1\Nc2ccccc2S1)c1nccc(-c2ccccc2)n1 [Compound 20A] | 90 | 20 | 200 | > 5000 | 8000 | 600 | – | – | – | – | –
CC(C)(C)c1cc(C(F)(F)F)nc(C(C(N)=O)=C2Nc3ccccc3S2)n1 (single isomer, unassigned) [Compound 7A, 2-[benzothiazol-2(3H)-ylidene]-2-[4-tert-butyl-6-(trifluoromethyl)pyrimidin-2-yl]acetamide] | 7 | 20 | 30 | > 5000 | 6000 | 80 | – | – | – | – | –
NC(=O)/C(=C1\Nc2ccc(C(=O)NCCCn3ccnc3)cc2S1)c1nccc(C(F)(F)F)n1 [Compound 46A] | 6 | 10 | 40 | 200 | 400 | 200 | – | – | – | – | –
NC(=O)/C(=C1\Nc2ccc(NC(=O)C3(N)CC3)cc2N1)c1nccc(C(F)(F)F)n1 [Compound 34A] | 5 | 6 | 10 | 400 | 600 | 200 | – | – | – | – | –
COc1cc(C(F)(F)F)nc(/C(C(N)=O)=C2/Nc3ccccc3S2)n1 [Compound 6A] | 20 | 10 | 200 | 2000 | 4000 | 2000 | – | – | – | – | –

Further lines, with some results ahead:

IC50 [1] [nM] | IC50 [2] [nM] | IC50 [3] [nM] | IC50 [4, 8] [nM] | Structure (SMILES) | IC50 [5, 9] [nM] | IC50 [6, 9] [nM] | IC50 [7, 10] [nM] | IC50 ([4]; HCT-116, 4 h) [nM] | IC50 [5] [nM] | IC50 [6] [nM] | IC50 [7] [nM]
8 | 9 | 10 | 200 | NC(=O)/C(=C1\Nc2ccc(NC(=O)CCn3ccnc3)cc2N1)c1nccc(C(F)(F)F)n1 [Compound 87A] | 200 | 100 | 90 | – | – | – | –
20 | 6 | 20 | 200 | NC(=O)/C(=C1\Nc2ccc(S(=O)(=O)NCCCN3CCOCC3)cc2S1)c1nccc(C(F)(F)F)n1 [Compound 127A] | 600 | 500 | 40 | – | – | – | –
4 | 8 | 20 | 60 | NC(=O)/C(=C1\Nc2cc(NC(=O)Cn3ccnc3)ccc2S1)c1nccc(C(F)(F)F)n1 [Compound 88A] | 300 | 100 | 300 | – | – | – | –
6 | 9 | 20 | 400 | CN1CCC(C(=O)Nc2ccc3c(c2)N/C(=C(/C(N)=O)c2nccc(C(F)(F)F)n2)N3)CC1 [Compound 140A] | 400 | 300 | 20 | – | – | – | –
7 | 9 | 20 | 100 | NC(=O)/C(=C1\Nc2ccc(NC(=O)CCN3CCOCC3)cc2N1)c1nccc(C(F)(F)F)n1 [Compound 84A] | 200 | 100 | 60 | – | – | – | –
5 | 5 | 6 | 100 | NC(=O)/C(=C1\Nc2ccc(Cn3ccnc3)cc2S1)c1nccc(C(F)(F)F)n1 [Compound 89A] | 500 | 700 | 80 | – | – | – | –
4 | 8 | 30 | 200 | NC(=O)/C(=C1\Nc2ccc(NC(=O)Cn3ccnc3)cc2N1)c1nccc(C(F)(F)F)n1 [Compound 86A] | 400 | 800 | 30 | – | – | – | –
7 | 7 | 10 | 80 | NC(=O)/C(=C1\Nc2ccc(CN3CCNCC3)cc2S1)c1nccc(C(F)(F)F)n1 [Compound 94A] | 200 | 100 | 50 | – | – | – | –
20 | 9 | 50 | > 5000 | NC(=O)/C(=C1\Nc2ccc(-c3ccccn3)cc2N1)c1nccc(C(F)(F)F)n1 [Compound 109A] | 3000 | 500 | – | – | – | – | –
8 | 20 | 40 | > 5000 | NC(=O)/C(=C1\Nc2ccc(-c3cccnc3)cc2N1)c1nccc(C(F)(F)F)n1 [Compound 107A] | 5000 | 1000 | – | – | – | – | –
20 | – | 30 | 200 | Cc1cc2c(cc1C)NC(=C(C(N)=O)c1ncc(C(=O)NCCN3CCOCC3)c(C(F)(F)F)n1)N2 [Compound 136A] | 800 | 200 | 200 | – | – | – | –
